Test results reported in BindingDB's records for doi:10.1016/j.bmc.2004.09.056 (Pfizer, 2005).

Target: T1, Renin (Homo sapiens, UniProt P00797)
T1 sequence (P00797 whole entry): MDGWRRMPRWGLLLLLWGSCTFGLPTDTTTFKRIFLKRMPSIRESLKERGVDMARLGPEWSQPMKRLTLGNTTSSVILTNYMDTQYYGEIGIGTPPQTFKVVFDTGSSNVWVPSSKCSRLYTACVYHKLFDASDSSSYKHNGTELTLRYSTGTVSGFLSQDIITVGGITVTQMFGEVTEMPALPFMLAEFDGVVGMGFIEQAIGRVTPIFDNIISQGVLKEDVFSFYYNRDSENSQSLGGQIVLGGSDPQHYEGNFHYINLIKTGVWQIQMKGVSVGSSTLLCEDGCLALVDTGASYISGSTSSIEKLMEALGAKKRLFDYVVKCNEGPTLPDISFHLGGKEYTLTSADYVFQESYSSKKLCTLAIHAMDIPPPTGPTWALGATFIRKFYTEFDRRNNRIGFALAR
Experiment: In Vitro Renin IC50 Determinations (Tandem GFP FRET Assay)
Conditions: pH 7.4; 22 °C
Excerpt: The renin assay utilized a tandem Green Flourescent Protein (tGFP) substrate that was hydrolyzed by human rennin. The tGFP substrate contained a nine amino acid (Ile-His-Pro-Phe-His-Leu-Val-Ile-His) recognition sequence for human renin flanked by two GPF proteins (W1B and Topaz). Human rennin cleaves the leucine-valine site of the substrate linker. Once cleaved, the emission ratio changes. The change was monitored by the ratio of 530 nm (topaz) over 475 nm (W1B) with the excitation set at 432 nm and the cutoff at 515 nm. The assay used a 384 well plate format that was read using a Gemini XS Fluorometric plate reader (Molecular Devices). Compounds were screened at a starting concentration of 10 uM and used a fourfold eleven-point dilution regiment.

SMILES | IC50
COc1ccccc1COCCCOc1ccc([C@H]2CCNC[C@H]2NCc2ccc3occc3c2)cc1 (mixture of isomers) [mixture of cis isomers] | 393 nM
COc1ccccc1COCCCOc1ccc([C@H]2CCNC[C@H]2NC(=O)c2ccc3ccccc3c2)cc1 (mixture of isomers) [mixture of cis isomers] | > 10000 nM
COc1ccccc1COCCCOc1ccc([C@H]2CCNC[C@H]2NCc2ccc(-c3ccccc3)cc2)cc1 (mixture of isomers) [mixture of cis isomers] | > 10000 nM
COc1ccccc1COCCCOc1ccc([C@H]2CCNC[C@H]2NCc2ccc3ccccc3c2)cc1 [(3S,4R)-4-(4-{3-[(2-methoxyphenyl)methoxy]propoxy}phenyl)-N-(naphthalen-2-ylmethyl)piperidin-3-amine] | 61 nM
COc1ccc2cc(CN[C@@H]3CNCC[C@@H]3c3ccc(OCCCOCc4ccccc4OC)cc3)ccc2c1 (mixture of isomers) [(3S,4R)-N-[(6-methoxynaphthalen-2-yl)methyl]-4-(4-{3-[(2-methoxyphenyl)methoxy]propoxy}phenyl)piperidin-3-amine] | 73 nM
COc1ccccc1COCCCOc1ccc([C@H]2CCNC[C@H]2NCc2ccc3[nH]ccc3c2)cc1 (mixture of isomers) [(3S,4R)-N-(1H-indol-5-ylmethyl)-4-(4-{3-[(2-methoxyphenyl)methoxy]propoxy}phenyl)piperidin-3-amine] | 2280 nM
COc1ccccc1COCCCOc1ccc([C@H]2CCNC[C@H]2NCc2ccc3cccnc3c2)cc1 (mixture of isomers) [mixture of cis isomers] | 175 nM
COc1ccccc1COCCCOc1ccc([C@H]2CCNC[C@H]2NCc2ccc3c(c2)NCCC3)cc1 [mixture of cis isomers] | 255 nM
